Measurements reported in patent US10206944B2, “Chondroitin for use in medicine” (ALTERGON S.A., priority 2012, dated 2019).

Key:
[1] = tested on: HT-1376 cells; experiment: Flow cytometry of apoptotic and necrotic cells (Annexin V-FITC/PI); assay type: cell-based, human; parameters: unit not given here; settings: 48 h, alone or combined
Experimental: Flow cytometry was used to evaluate the quantity of apoptotic or necrotic cells. Fluorescein isothiocyanate (Annexin V-FITC) combined with propidium iodide (PI) was used as marker; the apoptotic cells were Annexin V-FITC positive and PI negative, and the necrotic cells were Annexin V-FITC positive and PI positive. The cells were labelled by incubating them with Annexin V-FITC (Diagnostics MedSystems) and PI (Sigma) in a binding buffer (10 mM HEPES, pH 7.4, 150 mM NaCl, 5 mM KCl, 1 mM MgCl2, 2.5 mM CaCl2) for 10 min at ambient temperature, and then washing and resuspending the cell material in the same buffer. The apoptotic and necrotic cells were analysed by flow cytometry (FACScan, Becton-Dickinson), acquiring an average of 2×10^4 events per sample, with determinations in triplicate on three separate experiments.

[2] = tested on: mini-pig dorsal wounds; experiment: Wound repair in the mini-pig, topical treatment; assay type: in vivo; parameters: key to d) Histological evaluation of biopsies after 4 weeks / e) Histological evaluation of biopsies after 6 weeks: collagen organisation 1-3; 3 = best healing, 1 = parallel bundles; settings: for a) Evaluation of wound quality after 4 weeks: 2.5 mL twice a day, 5 excellent; for a) Evaluation of wound quality after 4 weeks / b) Evaluation of wound quality after 6 weeks: 5-point scale; for d) Histological evaluation of biopsies after 4 weeks / e) Histological evaluation of biopsies after 6 weeks: collagen organisation, 3-point scale; for c) Histopathological evaluation after 6 weeks: scale of 1 to 3, 3 optimum healing
Source text: The mini-pig (an animal weighing 25-28 Kg), a model whose validity for wound-repair studies is widely recognised, was used as experimental model to evaluate the ability of chondroitin to accelerate the repair process of damaged skin tissue. Operating under general anaesthetic from the back of the animals, the hair was shaved and the shaven area was washed thoroughly with a 10% solution of iodine-polyvinylpyrrolidone complex and then with isopropyl alcohol. 12 elliptical wounds, six on each side, 20 mm long and 6 mm wide, were made on the shaven, disinfected backs of the animals. The wounds penetrated as far as the subcutaneous fat, about 4 cm from the median line of the back, with the longer side of the wound parallel to the spinal line. The incisions were then sewn with two stitches to close the dermal plane. The superficial stitches were removed after about 7 days. The wounds were covered with a non-adhesive dressing secured with sticking plaster, and the body of the animals was protected with an elastic bandage. Eight animals were selected and divided into two groups of 4, treated topically with chondroitin (first group) or chondroitin sulphate (second group), as described in the protocol shown in Table 11. Starting from the head of the animal, the first two wounds on both sides were treated with the carrier alone, consisting of 2.5 mL of saline, the second two on both sides were treated with 2.5 mL of a 30 mg/mL solution of chondroitin in saline (first group) or with 2.5 mL of a 30 mg/mL solution of chondroitin sulphate in saline (second group), and the third two on both sides were treated with 2.5 mL of a 60 mg/mL solution of chondroitin in saline (first group) or 2.5 mL of a 60 mg/mL solution of chondroitin sulphate in saline (second group). The treatment was performed by slowly dripping the solution into the wound twice a day and dabbing with a gauze dressing, which was then used to cover the wound so that the active ingredient remained in situ for longer. The study continued for 6 weeks, after which the animals were euthanized. A biopsy of about 4 mm was taken after 4 weeks, while the entire areas of the 12 dorsal wounds were removed from the euthanized animals for histological tests. The following evaluations were performed on the treated animals:
a) an evaluation after 4 and 6 weeks by 4 dermatologists who independently assessed the quality of the wound (colour, texture, edges, distortion) and the appearance of the surrounding tissue on a 5-point scale;
b) a pathological evaluation on a scale of 1 to 3 conducted by two veterinary surgeons on the tissue removed after the animals were euthanized, to evaluate the presence of abnormal histopathological situations (quantity of granulation tissue and inflammatory response, with a score from 3 for optimum healing to 1 for ongoing inflammatory symptoms and abundant granulation tissue);
c) a histological analysis of the 4-week biopsies and the tissue removed after the animals were euthanized, conducted by two histologists operating independently, who evaluated the organisation of the collagen on a 3-point scale. An organisation of the collagen fibres similar to the normal model, but smaller than normal dermis (the best healing), scored 3 points, an intermediate arrangement of the fibre weave scored 2 points, and several fibres arranged in parallel bundles or on a plane scored 1 point.

[3] = 0.04 μg/mL of C or CS and 0.15 μg/mL of GEM
[4] = 5.7 μg/mL of C or CS and 1.7 μg/mL of MMC

Row | Substance | Cell state: apoptotic advanced [1, 3] | Cell state: apoptotic early [1, 3] | Cell state: necrotic [1, 3] | Cell state: viable [1, 3] | Cell state: apoptotic advanced [1, 4] | Cell state: apoptotic early [1, 4] | Cell state: necrotic [1, 4] | Cell state: viable [1, 4] | a) Evaluation of wound quality after 4 weeks ([2]; 30 mg/mL) | b) Evaluation of wound quality after 6 weeks ([2]; 30 mg/mL) | d) Histological evaluation of biopsies after 4 weeks ([2]; 30 mg/mL) | e) Histological evaluation of biopsies after 6 weeks ([2]; 30 mg/mL) | c) Histopathological evaluation after 6 weeks ([2]; 30 mg/mL) | a) Evaluation of wound quality after 4 weeks ([2]; 60 mg/mL) | b) Evaluation of wound quality after 6 weeks ([2]; 60 mg/mL) | d) Histological evaluation of biopsies after 4 weeks ([2]; 60 mg/mL) | e) Histological evaluation of biopsies after 6 weeks ([2]; 60 mg/mL) | c) Histopathological evaluation after 6 weeks ([2]; 60 mg/mL)
1 | chondroitin | 7 ± 2 | 6 ± 1 | 28 ± 3 | 59 ± 2 | 2 ± 1 | 1 ± 1 | 41 ± 2 | 56 ± 3 | 3.8 ± 0.4 | 4.5 ± 0.3 | 2.3 ± 0.2 | 2.7 ± 0.1 | 2.3 ± 0.1 | 4.1 ± 0.3 | 4.9 ± 0.1 | 2.7 ± 0.1 | 3.0 ± 0.2 | 3.0 ± 0.2
2 | chondroitin sulphate [CS, reference compound] | 5 ± 1 | 4 ± 1 | 23 ± 2 | 68 ± 4 | 1 ± 1 | 1 ± 1 | 36 ± 2 | 62 ± 4 | 2.6 ± 0.2 | 3.4 ± 0.3 | 1.3 ± 0.1 | 1.7 ± 0.2 | 1.7 ± 0.2 | 2.9 ± 0.2 | 3.7 ± 0.3 | 1.3 ± 0.1 | 1.7 ± 0.1 | 2.3 ± 0.2
